Source: patent US12110503B2, “Method for differentiation of ocular cells and use thereof” (FUJIFILM Cellular Dynamics, Inc., priority 2018, dated 2024)

Test system: anterior neuroectoderm cells
Assay: Retinal differentiation with removal of the BMP inhibitor (RD1 then RD2)
Type: cell-based, human
Settings: RD1 with LDN193189 about 2 days, then RD2 without
Description: In some aspects, the cells may be first differentiated in the presence of a BMP inhibitor, such as LDN1913189, for a period of time before differentiation in the absence of a BMP inhibitor. First, the anterior neuroectoderm cells are cultured in RD1 comprising a BMP pathway inhibitor, such as LDN193189, for about 1-3 days, such as 2 days. […] The second step may be for about 5-10 days, such as about 7 days, to continue differentiating the anterior neuroectoderm cells. […] VSX2 is the earliest specific marker of neural RPC within the optic vesicle and cup (Rowan, et al., 2004). VSX2^+ retinal progenitors can give rise to all cell types of the neural retina: cones, rods, ganglion cells, amacrine cells, bipolar cells, horizontal cells and Muller glia.
The cells were then cultured in Retinal Differentiation Medium 1 (RD1) for about one to four days, particularly about two days. Briefly, the RD1 (Table 1) comprised DMEM and F12 at about a 1:1 ratio, knockout serum replacement, MEM NEAA, sodium pyruvate, N-2 supplement, B-27 supplement, and ascorbic acid. In addition, the RD1 comprised a WNT pathway inhibitor (e.g., CKI-7), a BMP pathway inhibitor (e.g., LDN193189), a TGFβ pathway inhibitor (e.g., SB431542), and a MEK inhibitor (e.g., PD325901), and IGF-1. […]

For `Cl.c1ccc2c(-c3cnn4cc(-c5ccc(N6CCNCC6)cc5)cnc34)ccnc2c1` [LDN193189, 4-(6-(4-(piperazin-1-yl)phenyl)pyrazolo[1,5-a]pyrimidin-3-yl)quinoline hydrochloride], the “VSX2 expression after removal of the BMP inhibitor” value was “increase expression of VSX2”.
